From patent publication US6642226B2, “Substituted phenyl-piperidine methanone compounds” (Hoffman-La Roche Inc., priority 2001, dated 2003)
In brackets after ≈: the same amount, converted by molar mass.

Experiments:
[1] = target: T1, human NK1 receptor (Homo sapiens, UniProt P25103); assay: NK1 receptor binding, [3H]substance P displacement; conditions: human NK1 receptors in CHO cells, [3H]substance P 0.6 nM; for Ki: read-out: pKi (affinity to the NK-1 receptor) (converted)
T1 construct: expressed in transfected cells; host or cells: CHO cells, Semliki virus expression system; membrane suspension
Protocol: The affinity of test compounds for the NK1 receptor was evaluated at human NK1 receptors in CHO cells infected with the human NK1 receptor (using the Semliki virus expression system) and radiolabelled with [^3H]substance P (final concentration 0.6 nM). Binding assays were performed in HEPES buffer (50 mM, pH 7.4) containing BSA (0.04%) leupeptin (8 μg/ml), MnCl2 (3 mM) and phosphoramidon (2 μM). Binding assays consisted of 250 μl of membrane suspension (1.25×10^5 cells/assay tube), […] of buffer of displacing agent and 125 μl of [^3H]substance P. Displacement curves were determined with at least seven concentrations of the compound. The assay tubes were incubated for 60 min at room temperature after which time the tube contents were rapidly filtered under vacuum through GF/C filters presoaked for 60 min with PEI (0.3%) with 2×2 ml washes of HEPES buffer (50 mM, pH 7.4). The radioactivity retained on the filters was measured by scintillation counting. All assays were performed in triplicate in at least 2 separate experiments.

[2] = Solubility at pH 6.5 and pH 4.3 (water-solubility); conditions: water (aqueous medium; buffer not named)

T1 sequence (P25103 whole entry): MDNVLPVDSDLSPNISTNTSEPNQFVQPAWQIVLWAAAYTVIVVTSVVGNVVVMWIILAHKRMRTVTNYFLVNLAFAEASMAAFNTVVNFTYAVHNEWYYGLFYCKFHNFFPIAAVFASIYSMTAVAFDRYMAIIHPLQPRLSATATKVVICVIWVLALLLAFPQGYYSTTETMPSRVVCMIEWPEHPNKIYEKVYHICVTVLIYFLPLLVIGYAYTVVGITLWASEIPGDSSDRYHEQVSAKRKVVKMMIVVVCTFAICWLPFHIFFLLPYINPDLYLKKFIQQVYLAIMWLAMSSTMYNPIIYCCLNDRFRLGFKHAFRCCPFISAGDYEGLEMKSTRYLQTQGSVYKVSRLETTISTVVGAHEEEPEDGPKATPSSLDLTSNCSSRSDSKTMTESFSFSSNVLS

Structure (SMILES)	Ki [1]	solubility ([2]; pH 4.3, aqueous buffer)	solubility ([2]; pH 6.5, aqueous buffer)	pKi (affinity to the NK-1 receptor) [1]	Solubility at pH 4.3 (pH 4.3)	Solubility at pH 6.5 (pH 6.5)
O=C(c1cc(C(F)(F)F)cc(C(F)(F)F)c1)N1CCC(N2CCC(O)CC2)C(c2ccc(Cl)cc2)C1 (racemic) [Example 63, Rac-cis-(3,5-Bis-trifluoromethyl-phenyl)-[3′-(4-chloro-phenyl)-4-hydroxy-[1,4′]bipiperidinyl-1′-yl]-methanone]	2.14 nM	1000 µg/mL (≈ 1870 µM)	780 µg/mL (≈ 1460 µM)			
Cc1ccc(C2CN(C(=O)c3cc(C(F)(F)F)cc(C(F)(F)F)c3)CCC2N2CCN(CC3CC3)CC2)cc1 (single isomer, unassigned; (-)) [Example 102, (−)-4-(3,5-Bis-trifluoromethyl-phenyl)-[4-(4-cyclopropylmethyl-piperazin-1-yl)-3-p-tolyl-piperidin-1-yl]-methanone]				9.28	5.5 mg/mL	0.43 mg/mL

The remaining lines, values ahead:

Ki [1]	solubility ([2]; pH 4.3, aqueous buffer)	solubility ([2]; pH 6.5, aqueous buffer)	pKi (affinity to the NK-1 receptor) [1]	Solubility at pH 4.3 (pH 4.3)	Solubility at pH 6.5 (pH 6.5)	Structure (SMILES)
3.09 nM	> 8400 µg/mL	910 µg/mL (≈ 1820 µM)				CN1CCN([C@H]2CCN(C(=O)c3cc(C(F)(F)F)cc(C(F)(F)F)c3)C[C@H]2c2ccccc2)CC1 (racemic) [Example 27, Rac-cis-(3,5-Bis-trifluoromethyl-phenyl)-[4-(4-methyl-piperazin-1-yl)-3-phenyl-piperidin-1-yl]-methanone]
1.26 nM	> 7500 µg/mL					O=C(c1cc(C(F)(F)F)cc(C(F)(F)F)c1)N1CC[C@H](N2CCN(CC3CC3)CC2)[C@H](c2ccccc2)C1 (racemic) [Example 36, Rac-cis-(3,5-Bis-trifluoromethyl-phenyl)-[4-(4-cyclopropylmethyl-piperazin-1-yl)-3-phenyl-piperidin-1-yl]-methanone]
	> 3500 µg/mL					O=C(c1cc(C(F)(F)F)cc(C(F)(F)F)c1)N1CC[C@H](N2CCNCC2)[C@H](c2ccccc2)C1 (racemic) [Example 34, Rac-cis-(3,5-Bis-trifluoromethyl-phenyl)-(3-phenyl-4-piperazin-1-yl-piperidin-1-yl)-methanone]
